The values that follow come from ChEMBL document CHEMBL1122021, “Angiotensin-converting enzyme inhibitors: importance of the amide carbonyl of mercaptoacyl amino acids for hydrogen bonding to the enzyme” (J Med Chem, 1982).

Molecules are shown by their SMILES.

This assay addresses T1, Angiotensin-converting enzyme (Oryctolagus cuniculus, UniProt P12822).
T1 sequence (P12822 whole entry): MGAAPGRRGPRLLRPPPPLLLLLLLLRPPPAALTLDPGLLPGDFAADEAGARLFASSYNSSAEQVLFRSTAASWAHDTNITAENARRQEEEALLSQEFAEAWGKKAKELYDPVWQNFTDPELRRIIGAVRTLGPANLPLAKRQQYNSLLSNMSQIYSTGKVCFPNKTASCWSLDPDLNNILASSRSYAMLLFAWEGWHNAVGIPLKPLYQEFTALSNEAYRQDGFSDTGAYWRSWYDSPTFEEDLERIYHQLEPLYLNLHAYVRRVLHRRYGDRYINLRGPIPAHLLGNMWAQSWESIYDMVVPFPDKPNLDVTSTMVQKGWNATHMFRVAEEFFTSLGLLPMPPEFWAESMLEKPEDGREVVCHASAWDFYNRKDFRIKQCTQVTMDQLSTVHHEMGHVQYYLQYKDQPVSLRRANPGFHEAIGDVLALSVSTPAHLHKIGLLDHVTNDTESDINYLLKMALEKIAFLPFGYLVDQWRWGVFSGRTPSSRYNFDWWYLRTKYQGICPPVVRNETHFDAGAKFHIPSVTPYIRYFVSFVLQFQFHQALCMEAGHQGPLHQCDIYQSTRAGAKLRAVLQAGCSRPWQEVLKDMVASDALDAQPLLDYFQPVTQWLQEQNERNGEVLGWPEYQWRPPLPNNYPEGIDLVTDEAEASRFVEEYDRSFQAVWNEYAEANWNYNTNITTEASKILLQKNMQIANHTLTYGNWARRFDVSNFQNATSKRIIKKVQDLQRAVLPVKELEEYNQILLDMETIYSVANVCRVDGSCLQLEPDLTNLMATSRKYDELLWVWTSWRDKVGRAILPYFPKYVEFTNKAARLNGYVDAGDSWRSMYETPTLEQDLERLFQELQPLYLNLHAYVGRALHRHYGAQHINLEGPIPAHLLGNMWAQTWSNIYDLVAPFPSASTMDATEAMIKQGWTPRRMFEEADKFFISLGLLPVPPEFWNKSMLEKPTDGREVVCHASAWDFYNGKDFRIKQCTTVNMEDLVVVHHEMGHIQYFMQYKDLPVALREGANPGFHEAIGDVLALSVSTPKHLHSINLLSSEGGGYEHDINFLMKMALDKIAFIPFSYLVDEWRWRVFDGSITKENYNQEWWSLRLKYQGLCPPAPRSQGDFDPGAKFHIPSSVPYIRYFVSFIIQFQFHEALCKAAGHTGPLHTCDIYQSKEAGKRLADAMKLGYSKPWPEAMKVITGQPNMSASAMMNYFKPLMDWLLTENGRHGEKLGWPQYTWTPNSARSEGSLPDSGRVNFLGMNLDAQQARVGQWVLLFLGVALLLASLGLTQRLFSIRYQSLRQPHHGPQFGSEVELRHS
The assay can be described thus: In vitro inhibitory activity against Angiotensin I converting enzyme in rabbit lung, using hippuryl-histidyl-leucine as substrate.

For the compound `O=C(O)[C@@H]1CCCN1C(=O)CCS`, where the note is “read-out: I50”, the IC50 came out at 0.25 µM. For the compound `O=C(O)CN1CCCC(CS)C1=O` (stereo unspecified), where the note is “read-out: I50”, the IC50 was 10 µM. With `O=C(O)[C@@H]1CCCN1CCCS`, under “read-out: I50”, the IC50 amounted to 240 µM. Regarding `C[C@H](CS)C(=O)N1C(=O)CC[C@H]1C(=O)O`, the IC50 came out at 0.009 µM. As to `O=C(CCS)N[C@@H](Cc1ccccc1)C(=O)O`, the IC50 (read-out: I50) came out at 0.85 µM. For the compound `O=C(O)[C@@H]1CC[C@H]1C(=O)CCS`, the IC50 (read-out: I50) is 37 µM.

Take `O=C(O)CC(=O)NCCS`: the IC50 (read-out: I50) is 580 µM. The same measure, in the same setting: to `C[C@@H](CS)C(=O)[C@@H]1CCCC[C@H]1C(=O)O` belongs 3.7 µM; to `O=C(O)[C@@H]1CCCC[C@H]1C(=O)CCS`, 1.7 µM; to `O=C(O)C/C=C/CCS`, 720 µM. As for `O=C(O)[C@@H]1CCC(=O)N1CCCS`, under “read-out: I50”, the IC50 was 640 µM.

Regarding `O=C(O)CNC(=O)CCS`, the IC50 (read-out: I50) came out at 2.8 µM. Still for that read-out and setting: with `CN(CC(=O)O)C(=O)CCS` the figure was 3 µM.

Take `O=C(O)CCCCCS`: the IC50 (read-out: I50) was 1100 µM. Regarding `CN(C(=O)CCS)[C@@H](Cc1ccccc1)C(=O)O`, the IC50 worked out at 31 µM. As to `O=C(O)CCC(=O)CCS`, where the note is “read-out: I50”, the IC50 is 11 µM. On to `O=C(CCS)O[C@@H](Cc1ccccc1)C(=O)O`, for which the IC50 (read-out: I50) amounted to 0.7 µM. `O=C(O)[C@@H]1CCCN1S(=O)(=O)CCS`: the IC50 (read-out: I50) is 11 µM. Still for that read-out and setting: with `O=C(O)[C@@H]1CCC[C@H]1C(=O)CCS` the figure was 2.4 µM. With `O=C(CCS)[C@H]1CCCC[C@H]1C(=O)O`, the IC50 (read-out: I50) stood at 1.4 µM. `C[C@H](CS)C(=O)N1CCCC[C@H]1C(=O)O`: the IC50 (read-out: I50) turned out to be 0.13 µM. For `O=C(O)CCC(O)CCS` (stereo unspecified), the IC50 (read-out: I50) is 1200 µM.

Take `O=C(O)[C@@H]1CCN1C(=O)CCS`: under “read-out: I50”, the IC50 is 1.7 µM.

Consider `O=C(O)[C@@H]1CCCCN1C(=O)CCS`, for which, where the note is “read-out: I50”, the IC50 came to 0.46 µM.

As for `O=C(CCS)[C@H]1CC[C@H]1C(=O)O`, the IC50 (read-out: I50) turned out to be 34 µM. With `C[C@H](CS)C(=O)[C@@H]1CCCC[C@H]1C(=O)O`, where the note is “read-out: I50”, the IC50 is 0.74 µM.
